Experimental data taken from EP4722209A1 (Beijing Shenogen Pharma Group, priority 2023, dated 2024).

Target: T1, ERα (Homo sapiens, UniProt P03372)
T1 construct: host or cells: MCF-7
T1 sequence (P03372 1-595): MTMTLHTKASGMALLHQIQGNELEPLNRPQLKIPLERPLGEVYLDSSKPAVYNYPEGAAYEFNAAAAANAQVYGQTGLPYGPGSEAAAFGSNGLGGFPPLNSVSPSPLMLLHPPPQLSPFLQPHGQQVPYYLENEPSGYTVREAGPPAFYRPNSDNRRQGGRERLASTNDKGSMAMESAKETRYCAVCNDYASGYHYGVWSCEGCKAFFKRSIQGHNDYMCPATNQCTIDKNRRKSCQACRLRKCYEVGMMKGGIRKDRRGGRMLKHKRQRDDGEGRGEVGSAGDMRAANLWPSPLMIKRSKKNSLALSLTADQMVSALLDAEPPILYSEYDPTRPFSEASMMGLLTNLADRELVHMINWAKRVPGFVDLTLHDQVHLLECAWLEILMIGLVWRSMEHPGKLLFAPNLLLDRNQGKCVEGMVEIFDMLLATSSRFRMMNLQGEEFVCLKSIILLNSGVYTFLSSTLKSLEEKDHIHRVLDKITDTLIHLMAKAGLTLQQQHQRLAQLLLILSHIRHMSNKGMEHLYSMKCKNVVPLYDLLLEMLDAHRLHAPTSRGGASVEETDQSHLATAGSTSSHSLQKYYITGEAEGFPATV
Assay: ER degradation activity in MCF-7 cells (Western blot, grayscale intensity)
Format: cell-based
Settings: 6 hours treatment, 1 nM to 100 nM, concentration required to degrade 50% of the target protein
Experimental: ERα-positive human breast cancer cells MCF-7 (ATCC, HTB-22) were cultured with EMEM medium (ATCC, catalog number 30-2003) containing 10% fetal bovine serum (Thermo Fisher, catalog number 10099141) and 10 µg/mL bovine insulin in 25 cm^2 or 75 cm^2 plastic tissue culture flasks in a 37 °C incubator with 5% CO2. The cells were passaged 2 to 3 times per week. MCF-7 cells were seeded in 6-well plate at 1×10^6 cells/well with 1.8 mL culture medium per well, and cultured in a 37 °C incubator with 95% air and 5% CO2. After 24 hours, the test compounds were added: the compounds were serially diluted 10-fold in DMSO starting from 10 mM (dissolved in DMSO) to prepare gradient stock solutions. A complete culture medium containing 1% DMSO was prepared for further dilution, temporarily named as the "dilution buffer." Working solutions were prepared by diluting each stock solution with 99 times the volume of dilution buffer, that is, by adding 1 µL of the 10 mM stock solution to 99 µL of the dilution buffer and mixing thoroughly.
Finally, […] of the working solution was added to the cell-seeded culture plate. The final concentration of DMSO in the cell culture medium was 0.2%, and the final concentration of the test compounds ranged from 1 nM to 100 nM. The cells were then incubated at 37 °C for 6 hours.
The culture medium was removed, and the cells were washed twice with ice cold PBS. 1 mL of PBS was added to each well, and the cells were collected into EP tubes using a cell scraper, and centrifuged at 4 °C, 4000 rpm for 5 minutes. PBS was aspirated. Total protein was extracted using the Minute™ Mammalian Tissue/Cell Total Protein Extraction Reagent. The protein concentration was measured using the BCA protein assay kit. 30 µg of protein was taken and mixed with 5× SDS-PAGE loading buffer, boiled for 10 minutes, and cooled. The samples were loaded into wells of a precast gel, with constant voltage at 80 V for 30 minutes, and then the voltage was changed to 120 V after the samples entered the resolving gel. The "sandwich" (sponge - filter paper - gel - membrane - filter paper - sponge) was assembled for Bio-Rad's Transblot. Transfer was performed for 1 hour at 0.3 amp at 4 °C. The sample was blocked with 5% fat-free milk for 1 hour, and incubated with Estrogen Receptor alpha Antibody (Thermo Fisher, catalog number MA5-14104) overnight at 4 °C. The membrane was washed with TBST to remove non-specifically bound antibodies, and then incubated with goat anti-mouse IgG-HRP secondary antibody for 1 hour at room temperature, and was visualized using ECL. The protein degradation level was calculated by measuring the grayscale intensity.
The DC50 values (i.e., the concentration of the test compounds required to degrade 50% of the target protein) were calculated and shown in Table 1. A corresponds to a DC50 value below 10 nM, B corresponds to a DC50 value greater than 10 nM and less than 100 nM, and C corresponds to DC50 values greater than 100 nM. Table 1. The DC50 values of exemplary compounds in MCF-7 cells

SMILES	DC50 [nM]
CC1(C)CC(=C(c2ccc3[nH]nc(F)c3c2)c2c(F)cc(N3CCN(CC4CN(c5ccc6c(c5)C(=O)N(C5CCC(=O)NC5=O)C6=O)C4)CC3)cc2F)CC(C)(C)O1 (stereo not drawn) [Compound 9]	> 100
CC1(C)CC(=C(c2ccc(N3CCN(C4CCN(c5ccc(NC6CCC(=O)NC6=O)cc5)CC4)CC3)cc2)c2ccc3[nH]nc(F)c3c2)CC(C)(C)O1 (stereo not drawn) [Compound 91]	> 100
CC1(C)CC(=C(c2ccc3[nH]nc(F)c3c2)c2c(F)cc(N3CC(CN4CCN(c5ccc6c(c5)C(=O)N(C5CCC(=O)NC5=O)C6=O)CC4)C3)cc2F)CC(C)(C)O1 (stereo not drawn) [Compound 15]	10 to 100
CC1(C)CC(=C(c2ccc(N3CC4(CCN(C(=O)CN5Cc6cc7c(cc6C5)C(=O)N(C5CCC(=O)NC5=O)C7)C4)C3)nc2)c2ccc3[nH]nc(F)c3c2)CC(C)(C)O1 (stereo not drawn) [Compound 71]	> 100
CC1(C)CC(=C(c2ccc3[nH]nc(F)c3c2)c2c(F)cc(OCCN3CCN(c4ccc5c(c4)C(=O)N(C4CCC(=O)NC4=O)C5=O)CC3)cc2F)CC(C)(C)O1 (stereo not drawn) [Compound 23]	> 100
CC1(C)CC(=C(c2ccc(OC3CN(C4CN(c5ccc6c(c5)C(=O)N(C5CCC(=O)NC5=O)C6=O)C4)C3)cc2)c2ccc3[nH]nc(F)c3c2)CC(C)(C)O1 (stereo not drawn) [Compound 21]	> 100
CC1(C)CC(=C(c2ccc(N3CCC4(CC3)CC(N3CCN(c5ccc(C(=O)N[C@H]6CCC(=O)NC6=O)c(F)c5)CC3)C4)nc2)c2ccc3[nH]nc(F)c3c2)CC(C)(C)O1 [Compound 123]	10 to 100
CC1(C)CC(=C(c2ccc(N3CCC(CN4CCN(c5ccc6c(c5)C(=O)N(C5CCC(=O)NC5=O)C6=O)CC4)CC3)nc2)c2ccc3[nH]nc(F)c3c2)CC(C)(C)O1 (stereo not drawn) [Compound 103]	10 to 100
CC1(C)CC(=C(c2ccc(OCCN3CCN(c4ccc5c(c4)C(=O)N(C4CCC(=O)NC4=O)C5=O)CC3)nc2)c2ccc3[nH]nc(F)c3c2)CC(C)(C)O1 (stereo not drawn) [Compound 28]	> 100
CC1(C)CC(=C(c2ccc3[nH]nc(F)c3c2)c2c(F)cc(N3CCC(N4CCN(c5ccc6c(c5)C(=O)N(C5CCC(=O)NC5=O)C6=O)CC4)CC3)cc2F)CC(C)(C)O1 (stereo not drawn) [Compound 11]	< 10
CC1(C)CC(=C(c2ccc(N3CCC(CN4CCN(c5cccn6c(N7CCC(=O)NC7=O)cnc56)CC4)CC3)nc2)c2ccc3[nH]nc(F)c3c2)CC(C)(C)O1 [Compound 96, 1-(8-(4-((1-(5-((3-fluoro-1H-indazole-5-yl)(2,2,6,6-tetramethyltetrahydro-4H-pyran-4-ylidene)methyl)pyridin-2-yl)piperidin-4-yl)methyl)piperazin-1-yl)imidazole [1,2-a]pyridin-3-yl)dihydropyrimidine-2,4 (1H, 3H) - dione]	< 10
CC1(C)CC(=C(c2ccc(N3CCC(F)(CNC4CCN(c5ccc6c(c5)CN(C5CCC(=O)NC5=O)C6=O)CC4)CC3)nc2)c2ccc3[nH]nc(F)c3c2)CC(C)(C)O1 (stereo not drawn) [Compound 61]	< 10
CC1(C)CC(=C(c2ccc(OC3CN(CC4CN(c5ccc6c(c5)C(=O)N(C5CCC(=O)NC5=O)C6=O)C4)C3)nc2)c2ccc3[nH]nc(F)c3c2)CC(C)(C)O1 (stereo not drawn) [Compound 30]	> 100
Cn1c(=O)n(C2CCC(=O)NC2=O)c2cccc(C#CCN3CCN(c4ccc(C(=C5CC(C)(C)OC(C)(C)C5)c5ccc6[nH]nc(F)c6c5)cn4)CC3)c21 (stereo not drawn) [Compound 101]	> 100
CC1(C)CC(=C(c2ccc(N3CCN(C4CCN(c5cccc(NC6CCC(=O)NC6=O)c5)CC4)CC3)cc2)c2ccc3[nH]ncc3c2)CC(C)(C)O1 (stereo not drawn) [Compound 108]	> 100
CC1(C)CC(=C(c2ccc(N3CCN(C4CCN(c5ccc(N6CCC(=O)NC6=O)cc5)CC4)CC3)cc2)c2ccc3[nH]nc(F)c3c2)CC(C)(C)O1 [Compound 81]	> 100

Further lines, results first:

DC50 [nM]	SMILES
< 10	CC1(C)CC(=C(c2ccc(N3CCC(CN4CCN(c5ccc6c(c5)CN([C@H]5CCC(=O)NC5=O)C6=O)CC4)CC3)nc2)c2ccc3[nH]ncc3c2)CC(C)(C)O1 [Compound 137]
< 10	CC1(C)CC(=C(c2ccc(N3CCC(CN4CCN(c5ccc6c(c5)C(=O)N([C@@H]5CCC(=O)NC5=O)C6=O)CC4)CC3)cc2)c2ccc3[nH]ncc3c2)CC(C)(C)O1 [Compound 130]
< 10	CC1(C)CC(=C(c2ccc(N3CCC(CN4CCN(c5ccc6c(c5)CN(C5CCC(=O)NC5=O)C6=O)CC4)CC3)nc2)c2ccc3[nH]ncc3c2)CC(C)(C)O1 (stereo not drawn) [Compound 39]
> 100	CC1(C)CC(=C(c2ccc3[nH]nc(F)c3c2)c2c(F)cc(N3CCC(CN4CCN(c5ccc6c(c5)CN(C5CCC(=O)NC5=O)C6=O)CC4)CC3)cc2F)CC(C)(C)O1 (stereo not drawn) [Compound 55]
> 100	CC1(C)CC(=C(c2ccc(N3CCC(CN4CCN(c5cccc(N6CCC(=O)NC6=O)c5)CC4)CC3)nc2)c2ccc3[nH]nc(F)c3c2)CC(C)(C)O1 [Compound 75]
> 100	CC1(C)CC(=C(c2ccc(N3CCC4(CC3)CC(N3CCC(c5ccc6c(c5)CN(C5CCC(=O)NC5=O)C6=O)CC3)C4)nc2)c2ccc3[nH]nc(F)c3c2)CC(C)(C)O1 (stereo not drawn) [Compound 63]
10 to 100	CC1(C)CC(=C(c2ccc(N3CCN(C4CCN(c5ccc6c(c5)CN(C5CCC(=O)NC5=O)C6=O)CC4)CC3)cc2)c2ccc3[nH]ncc3c2)CC(C)(C)O1 (stereo not drawn) [Compound 66]
> 100	CC1(C)CC(=C(c2ccc(N3CC(CN4CCN(c5ccc6c(c5)CN(C5CCC(=O)NC5=O)C6=O)CC4)C3)nc2)c2ccc3[nH]nc(F)c3c2)CC(C)(C)O1 (stereo not drawn) [Compound 40]
10 to 100	CC1(C)CC(=C(c2ccc(N3CC4(CCN(C5CCN(c6ccc7c(c6)CN([C@H]6CCC(=O)NC6=O)C7=O)CC5)CC4)C3)nc2)c2ccc3[nH]nc(F)c3c2)CC(C)(C)O1 [Compound 139]
10 to 100	CC1(C)CC(=C(c2ccc(N3CCC(F)(CN4CCN(c5ccc6c(c5)CN(C5CCC(=O)NC5=O)C6=O)CC4)CC3)nc2)c2ccc3[nH]nc(F)c3c2)CC(C)(C)O1 (stereo not drawn) [Compound 59]
> 100	CC1(C)CC(=C(c2ccc(N3CCC4(CC3)CC(CN3CCN(c5ccc6c(c5)CN(C5CCC(=O)NC5=O)C6=O)CC3)C4)nc2)c2ccc3[nH]nc(F)c3c2)CC(C)(C)O1 (stereo not drawn) [Compound 54]
10 to 100	CN(CC1CCN(c2ccc(C(=C3CC(C)(C)OC(C)(C)C3)c3ccc4[nH]nc(F)c4c3)cn2)CC1)C1CCN(c2ccc3c(c2)CN(C2CCC(=O)NC2=O)C3=O)CC1 (stereo not drawn) [Compound 45]
10 to 100	CC1(C)CC(=C(c2ccc(N3CCC(N4CCN(c5ccc6c(c5)CN([C@@H]5CCC(=O)NC5=O)C6=O)CC4)CC3)cc2)c2ccc3[nH]nc(F)c3c2)CC(C)(C)O1 [Compound 134]
< 10	CC1(C)CC(=C(c2ccc(N3CCC(CN4CCN(c5ccc6c(c5)CN([C@@H]5CCC(=O)NC5=O)C6=O)CC4)CC3)nc2)c2ccc3[nH]ncc3c2)CC(C)(C)O1 [Compound 136]
< 10	CC1(C)CC(=C(c2ccc(N3CCC(CN4CCN(c5ccc(C(=O)N[C@H]6CCC(=O)NC6=O)c(F)c5)CC4)CC3)nc2)c2ccc3[nH]nc(F)c3c2)CC(C)(C)O1 [Compound 122]
> 100	CC1(C)CC(=C(c2ccc(N3CCN(C4CCN(c5ccc6c(c5)CN(C5CCC(=O)NC5=O)C6=O)CC4)CC3)nc2)c2ccc3[nH]nc(F)c3c2)CC(C)(C)O1 (stereo not drawn) [Compound 67]
> 100	CC1(C)CC(=C(c2ccc(N3CCC(CN4CCN(c5ccc6c(c5)C(=O)N(C5CCC(=O)NC5=O)C6)CC4)CC3)nc2)c2ccc3[nH]nc(F)c3c2)CC(C)(C)O1 (stereo not drawn) [Compound 118]
